Tests used:
[1] = 81.5 kPa, Liquid
[2] = xn = mol fraction of the nth substance listed; conditions: 81.5 kPa, Liquid

CC(O)CO (stereo not given) [1,2-propanediol]
[1]
Conditions | mass density [kg/m3]
293.15 K | 1036.3
303.15 K | 1028.89
313.15 K | 1021.35
323.15 K | 1013.68
333.15 K | 1005.86
343.15 K | 997.86

COCCO [2-methoxyethan-1-ol]
[1]
Conditions | mass density [kg/m3]
293.15 K | 964.86
303.15 K | 955.68
313.15 K | 946.38
323.15 K | 936.95
333.15 K | 927.38
343.15 K | 917.64

COCCO [2-methoxyethan-1-ol] + CC(C)O
mass density [kg/m3], [2]
Conditions | 293.15 K | 303.15 K | 313.15 K | 323.15 K | 333.15 K | 343.15 K
x1 = 0.0823 | 800.06 | 791.49 | 782.64 | 773.45 | 763.86 | 753.79
x1 = 0.1565 | 813.56 | 804.91 | 796 | 786.79 | 777.21 | 767.2
x1 = 0.2367 | 828.13 | 819.4 | 810.43 | 801.18 | 791.6 | 781.64
x1 = 0.3166 | 842.63 | 833.83 | 824.81 | 815.54 | 805.96 | 796.02
x1 = 0.4015 | 858.01 | 849.14 | 840.08 | 830.78 | 821.21 | 811.31
x1 = 0.4766 | 871.62 | 862.69 | 853.59 | 844.26 | 834.69 | 824.82
x1 = 0.5605 | 886.76 | 877.79 | 868.64 | 859.3 | 849.72 | 839.87
x1 = 0.6403 | 901.1 | 892.08 | 882.9 | 873.54 | 863.96 | 854.14
x1 = 0.7179 | 914.98 | 905.92 | 896.72 | 887.34 | 877.76 | 867.96
x1 = 0.7925 | 928.26 | 919.16 | 909.94 | 900.55 | 890.96 | 881.18
x1 = 0.8593 | 940.12 | 931 | 921.74 | 912.34 | 902.77 | 892.99
x1 = 0.9585 | 957.65 | 948.49 | 939.2 | 929.78 | 920.21 | 910.45

COCCO [2-methoxyethan-1-ol] + CC(O)CO
mass density [kg/m3], [2]
Conditions | 293.15 K | 303.15 K | 313.15 K | 323.15 K | 333.15 K | 343.15 K
x1 = 0.0745 | 1030.87 | 1023.34 | 1015.67 | 1007.87 | 999.89 | 991.75
x1 = 0.1669 | 1024.12 | 1016.42 | 1008.59 | 1000.6 | 992.48 | 984.19
x1 = 0.2365 | 1019.06 | 1011.22 | 1003.26 | 995.17 | 986.94 | 978.54
x1 = 0.3194 | 1013.05 | 1005.07 | 996.96 | 988.73 | 980.35 | 971.81
x1 = 0.3946 | 1007.6 | 999.48 | 991.25 | 982.88 | 974.38 | 965.73
x1 = 0.4791 | 1001.49 | 993.22 | 984.85 | 976.34 | 967.7 | 958.9
x1 = 0.5625 | 995.51 | 987.1 | 978.58 | 969.93 | 961.14 | 952.2
x1 = 0.6331 | 990.47 | 981.94 | 973.3 | 964.53 | 955.63 | 946.55
x1 = 0.7266 | 983.82 | 975.12 | 966.32 | 957.38 | 948.31 | 939.08
x1 = 0.8081 | 978.11 | 969.27 | 960.32 | 951.24 | 942.02 | 932.64
x1 = 0.8752 | 973.43 | 964.47 | 955.4 | 946.21 | 936.87 | 927.36
x1 = 0.9658 | 967.23 | 958.12 | 948.88 | 939.52 | 930.01 | 920.33

COCCO [2-methoxyethan-1-ol] + CCCO
mass density [kg/m3], [2]
Conditions | 293.15 K | 303.15 K | 313.15 K | 323.15 K | 333.15 K | 343.15 K
x1 = 0.0845 | 817.73 | 809.55 | 801.23 | 792.73 | 783.99 | 774.97
x1 = 0.1559 | 829.58 | 821.29 | 812.86 | 804.25 | 795.42 | 786.31
x1 = 0.2391 | 843.36 | 834.94 | 826.39 | 817.66 | 808.72 | 799.51
x1 = 0.3146 | 855.77 | 847.26 | 838.61 | 829.78 | 820.75 | 811.47
x1 = 0.4015 | 869.91 | 861.29 | 852.53 | 843.61 | 834.47 | 825.11
x1 = 0.479 | 882.45 | 873.74 | 864.89 | 855.88 | 846.68 | 837.25
x1 = 0.5597 | 895.42 | 886.62 | 877.69 | 868.6 | 859.32 | 849.83
x1 = 0.6365 | 907.69 | 898.82 | 889.81 | 880.65 | 871.31 | 861.76
x1 = 0.7183 | 920.73 | 911.78 | 902.7 | 893.47 | 884.08 | 874.48
x1 = 0.7939 | 932.73 | 923.71 | 914.56 | 905.28 | 895.83 | 886.17
x1 = 0.8775 | 945.88 | 936.8 | 927.59 | 918.24 | 908.74 | 899.05
x1 = 0.9553 | 957.99 | 948.84 | 939.57 | 930.18 | 920.63 | 910.9

CCCO [propan-1-ol]
[1]
Conditions | mass density [kg/m3]
293.15 K | 803.61
303.15 K | 795.57
313.15 K | 787.39
323.15 K | 779.02
333.15 K | 770.42
343.15 K | 761.51

CC(C)O [propan-2-ol]
[1]
Conditions | mass density [kg/m3]
293.15 K | 785.1
303.15 K | 776.63
313.15 K | 767.85
323.15 K | 758.68
333.15 K | 749.06
343.15 K | 738.91
